This is an account of results in article PMC12629169, “Antiaging, Wound‐Healing Properties and Chemical Characterization of Crude Hydroalcoholic Extract and Fractions of Myrcia neoobscura” (Chemistry & Biodiversity, 2025).

This experiment deals with T1, collagenase.
T1 construct: gene colG
As to the kind of experiment: ninhydrin colorimetric gelatin hydrolysis. To be noted: gelatin substrate, Tris-HCl pH 7.5, 5 mM CaCl2, 1 µM ZnCl2, 37°C. In kind it is biochemical.

Converted amounts (≈) assume the structure as drawn.

`O=C(O)c1cc(O)c(O)c(O)c1` [compound 1, gallic acid] displayed an IC50 of 108.88 ± 12.71 µg/mL (≈ 640 µM).

Broadly, the IC50 is the concentration that gives 50% inhibition.
